Test results published in publication PMC6934184, “Selective DNA-PKcs inhibition extends the therapeutic index of localized radiotherapy and chemotherapy” (The Journal of Clinical Investigation, 2019).

Target: T1, EGFR (ErbB1) (Homo sapiens, UniProt P00533)
T1 construct: purchased Thermo Fisher Scientific (Life Technologies) SelectScreen
Assay: SelectScreen Z'LYTE
Type: biochemical
In short: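 NU5455 was profiled across the SelectScreen Broad panel of kinase activity and binding assays. Z'LYTE reactions such as CSF1R ran at apparent Km ATP, while the Adapta CAMK1 assay used ATP listed as 10. Values are given as percent.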

T1 sequence (P00533 25-1210): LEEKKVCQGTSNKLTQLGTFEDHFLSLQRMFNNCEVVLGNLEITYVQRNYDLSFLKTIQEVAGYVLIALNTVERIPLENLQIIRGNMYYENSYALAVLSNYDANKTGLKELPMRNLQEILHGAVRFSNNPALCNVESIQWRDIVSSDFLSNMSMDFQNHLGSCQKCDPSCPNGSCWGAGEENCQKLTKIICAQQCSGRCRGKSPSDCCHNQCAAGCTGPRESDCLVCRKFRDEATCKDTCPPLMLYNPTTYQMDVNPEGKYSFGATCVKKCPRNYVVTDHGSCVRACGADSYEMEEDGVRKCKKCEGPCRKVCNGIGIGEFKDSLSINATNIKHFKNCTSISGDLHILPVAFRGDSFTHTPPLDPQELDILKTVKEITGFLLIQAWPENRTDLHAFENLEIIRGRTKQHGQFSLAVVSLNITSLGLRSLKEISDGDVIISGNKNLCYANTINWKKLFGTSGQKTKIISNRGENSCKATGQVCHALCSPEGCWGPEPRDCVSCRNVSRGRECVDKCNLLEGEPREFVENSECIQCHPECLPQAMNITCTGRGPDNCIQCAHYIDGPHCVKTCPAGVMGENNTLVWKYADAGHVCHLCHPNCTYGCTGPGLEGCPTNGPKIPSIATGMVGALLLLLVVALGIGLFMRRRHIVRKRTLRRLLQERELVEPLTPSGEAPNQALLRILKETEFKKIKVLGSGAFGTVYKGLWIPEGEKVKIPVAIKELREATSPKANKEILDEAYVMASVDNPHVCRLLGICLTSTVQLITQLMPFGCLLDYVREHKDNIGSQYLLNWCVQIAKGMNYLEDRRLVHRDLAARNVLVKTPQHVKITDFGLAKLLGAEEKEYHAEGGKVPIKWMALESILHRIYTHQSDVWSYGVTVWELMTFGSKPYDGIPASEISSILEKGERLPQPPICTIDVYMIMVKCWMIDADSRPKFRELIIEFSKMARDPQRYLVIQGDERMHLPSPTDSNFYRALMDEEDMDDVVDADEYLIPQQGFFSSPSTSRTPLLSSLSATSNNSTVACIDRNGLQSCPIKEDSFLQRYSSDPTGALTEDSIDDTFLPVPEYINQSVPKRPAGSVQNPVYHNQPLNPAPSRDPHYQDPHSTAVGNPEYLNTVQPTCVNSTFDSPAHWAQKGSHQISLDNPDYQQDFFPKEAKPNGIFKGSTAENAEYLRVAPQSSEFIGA

In the case of CN(C(=O)CN1CCOCC1)c1ccc2sc3c(-c4cccc5c(=O)cc(N6CC7CCC(C6)O7)oc45)cccc3c2c1 [NU5455], the inhibition at 1 µM is reported as 6%.
